Our source for the IC50 values is EP0674651B1, “SUBSTITUTED 6-AZAANDROSTENONES” (priority 1992, dated 1994).

SMILES strings stand for the structures. Where only a bound is given, the exact number is not on record here.

Test [1] concerns the target T1, human type 1 5α-reductase (Homo sapiens, UniProt P18405).
T1 sequence (P18405 1-259): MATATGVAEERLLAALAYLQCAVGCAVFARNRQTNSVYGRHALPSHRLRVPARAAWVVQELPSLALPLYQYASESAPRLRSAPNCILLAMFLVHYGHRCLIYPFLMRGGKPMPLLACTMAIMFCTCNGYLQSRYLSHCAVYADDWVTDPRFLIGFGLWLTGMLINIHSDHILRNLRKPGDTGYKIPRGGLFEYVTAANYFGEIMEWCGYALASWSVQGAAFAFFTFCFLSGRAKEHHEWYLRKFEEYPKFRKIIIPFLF
Description: 5α-reductase in vitro inhibitory activity, human type 1.
Description: (§1) Microsomes were prepared by homogenization of the tissue or cells, followed by differential centrifugation of the homogenate. […] Corresponding incubations were carried out with no test compound as a control study.
For type 2 IC50 measurements, assay components except testosterone were preincubated for 20 minutes at pH 6.0, and following the addition of 8nM testosterone the assays were allowed to proceed for 20-40 minutes. The percentage of conversion of testosterone to DHT in the presence of test compounds compared to the corresponding conversion in the control study was estimated using high pressure liquid chromatography (HPLC) with radiochemical detection.

Test [2] concerns the target T2, human type 2 5α-reductase (Homo sapiens, UniProt P31213).
T2 sequence (P31213 1-254): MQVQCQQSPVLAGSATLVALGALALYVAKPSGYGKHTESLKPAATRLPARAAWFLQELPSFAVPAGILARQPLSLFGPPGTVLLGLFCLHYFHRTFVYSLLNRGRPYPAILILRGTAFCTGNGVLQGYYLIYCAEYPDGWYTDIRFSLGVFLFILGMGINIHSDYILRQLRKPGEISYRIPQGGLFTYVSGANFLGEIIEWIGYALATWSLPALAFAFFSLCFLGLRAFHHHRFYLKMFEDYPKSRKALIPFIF
Description: 5α-reductase in vitro inhibitory activity, human type 2.
Description: as §1
The percentage of conversion of testosterone to DHT in the presence of test compounds compared to the corresponding conversion in the control study was estimated using high pressure liquid chromatography (HPLC) with radiochemical detection.

In the case of `C[C@]12CC[C@H]3[C@@H](CNC4=CC(=O)CC[C@@]43C)[C@@H]1CC[C@@H]2C(=O)NCCSc1ccccc1` [Compound 23, 17β-N-2-(Phenylthio)ethyl-carbamoyl-6-azaandrost-4-en-3-one], the values for the half-inhibitory concentration (IC50) in test [1] and in test [2] were 10 to 100 nM and under 10 nM, respectively.

In the case of `C[C@]12CC[C@H]3[C@@H](CNC4=CC(=O)CC[C@@]43C)[C@@H]1CC[C@@H]2C(=O)NC(c1ccc(F)cc1)c1ccc(F)cc1` [Compound 24, 17β-N-Bis-(4-fluorophenyl)methyl-carbamoyl-6-azaandrost-4-en-3-one], the IC50 – broadly, the midpoint of a concentration-inhibition curve – in test [1] was 10 to 100 nM.

Consider `C[C@]12CC[C@H]3[C@@H](CNC4=CC(=O)CC[C@@]43C)[C@@H]1CC[C@@H]2C(=O)c1ccc(F)cc1F` [Compound 26, 17β-(1-Oxo-1-(2,4-difluorophenyl)methyl)-6-azaandrost-4-en-3-one], for which the IC50 in test [1] was 10 to 100 nM; in test [2], under 10 nM.

As for `C[C@]12CC[C@H]3[C@@H](CNC4=CC(=O)CC[C@@]43C)[C@@H]1CC[C@@H]2C(=O)N1CCC(Cc2ccccc2)CC1` [Compound 37, 17β-N-(4-Benzyl)piperidyl-carbamoyl-6-azaandrost-4-en-3-one], the IC50 in test [1] is 10 to 100 nM; in test [2], under 10 nM.

`CC(C)(C)N(O)C(=O)[C@H]1CC[C@H]2[C@@H]3CNC4=CC(=O)CC[C@]4(C)[C@H]3CC[C@]12C` [Compound 41, 17β-N-Hydroxy-N-t-butyl-carbamoyl-6-azaandrost-4-en-3-one] yielded an IC50 in test [1] of 10 to 100 nM.

As to `CCc1c(Cl)cc(Cl)c(CC)c1NC(=O)[C@H]1CC[C@H]2[C@@H]3CNC4=CC(=O)CC[C@]4(C)[C@H]3CC[C@]12C` [Compound 54, 17β-N-(2,6-Diethyl-3,5-dichloro)phenyl-carbamoyl-6-azaandrost-4-en-3-one], the half-inhibitory concentration (IC50) is 10 to 100 nM in test [1] and under 10 nM in test [2].

For `CCc1ccc(Cl)c(CC)c1NC(=O)[C@H]1CC[C@H]2[C@@H]3CNC4=CC(=O)CC[C@]4(C)[C@H]3CC[C@]12C` [Compound 55, 17β-N-(2,6-Diethyl-3-chloro)phenyl-carbamoyl-6-azaandrost-4-en-3-one], the IC50 was 10 to 100 nM in test [1] and under 10 nM in test [2].

For `CC(C)(C)c1ccccc1NC(=O)[C@H]1CC[C@H]2[C@@H]3CNC4=CC(=O)CC[C@]4(C)[C@H]3CC[C@]12C` [Compound 56, 17β-N-(2-t-Butyl)phenyl-carbamoyl-6-azaandrost-4-en-3-one], the IC50 in test [1] is 10 to 100 nM; in test [2], under 10 nM.

With `C[C@]12CC[C@H]3[C@@H](CNC4=CC(=O)CC[C@@]43C)[C@@H]1CC[C@@H]2C(=O)Nc1cc(C(F)(F)F)cc(C(F)(F)F)c1` [Compound 57, 17β-N-(3,5-Ditrifluoromethyl)phenyl-carbamoyl-6-azaandrost-4-en-3-one], the IC50 in test [1] and in test [2] was 10 to 100 nM in each case.

As for `C[C@]12CC[C@H]3[C@@H](CNC4=CC(=O)CC[C@@]43C)[C@@H]1CC[C@@H]2C(=O)Nc1c(Cl)cc(Cl)cc1Cl` [Compound 58, 17β-N-(2,4,6-Trichloro)phenyl-carbamoyl-6-azaandrost-4-en-3-one], the IC50 was 10 to 100 nM in test [1] and under 10 nM in test [2].

Regarding `CC1(C)CC(NC(=O)[C@H]2CC[C@H]3[C@@H]4CNC5=CC(=O)CC[C@]5(C)[C@H]4CC[C@]23C)CC(C)(C)C1` [Compound 59, 17β-N-(3,5-Tetramethyl)cyclohexyl-carbamoyl-6-azaandrost-4-en-3-one], the figures for the IC50 in test [1] and in test [2] were over 100 nM and 10 to 100 nM, respectively.

Turning to `CC(C)c1cc(C(C)C)c(C(=O)[C@H]2CC[C@H]3[C@@H]4CNC5=CC(=O)CC[C@]5(C)[C@H]4CC[C@]23C)c(C(C)C)c1` [Compound 60, 17β-(1-Oxo-1-((2,4,6-tri-i-propyl)phenyl)methyl)-6-azaandrost-4-en-3-one], the IC50 is over 100 nM in test [1] and 10 to 100 nM in test [2].

For the compound `C[C@]12CC[C@H]3[C@@H](CNC4=CC(=O)CC[C@@]43C)[C@@H]1CC[C@@H]2C(=O)Nc1cc(C(F)(F)F)ccc1Br` [Compound 61, 17β-N-(2-Bromo-5-trifluoromethyl)phenyl-carbamoyl-6-azaandrost-4-en-3-one], the values for the IC50 in test [1] and in test [2] were 10 to 100 nM and under 10 nM, respectively.

Take `Cc1cccc(C(C)(C)C)c1NC(=O)[C@H]1CC[C@H]2[C@@H]3CNC4=CC(=O)CC[C@]4(C)[C@H]3CC[C@]12C` [Compound 62, 17β-N-(2-t-Butyl-6-methyl)phenyl-carbamoyl-6-azaandrost-4-en-3-one]: the results for the IC50 in test [1] and in test [2] were over 100 nM and under 10 nM, respectively.

For `CC(C)(NC(=O)[C@H]1CC[C@H]2[C@@H]3CNC4=CC(=O)CC[C@]4(C)[C@H]3CC[C@]12C)c1ccccc1` [Compound 63, 17β-N-(1-Methyl-1-phenyl)ethyl-carbamoyl-6-azaandrost-4-en-3-one], the IC50 in test [1] was over 100 nM; in test [2], under 10 nM.

With `C[C@]12CC[C@H]3[C@@H](CNC4=CC(=O)CC[C@@]43C)[C@@H]1CC[C@@H]2C(=O)NC1(c2ccc(Cl)cc2)CCCC1` [Compound 64, 17β-N-1-(4-Chlorophenyl)cyclopentyl-carbamoyl-6-azaandrost-4-en-3-one], the IC50 in test [1] and in test [2] was under 10 nM in each case.

`CC(C)C(NC(=O)[C@H]1CC[C@H]2[C@@H]3CNC4=CC(=O)CC[C@]4(C)[C@H]3CC[C@]12C)c1ccc(Cl)cc1` (stereo partly drawn) [Compound 65, 17β-N-(1-(4-Chlorophenyl)-2-methyl)propyl-carbamoyl-6-azaandrost-4-en-3-one]: the values for the IC50 in test [1] and in test [2] were 10 to 100 nM and under 10 nM, respectively.

For the compound `CC(NC(=O)[C@H]1CC[C@H]2[C@@H]3CNC4=CC(=O)CC[C@]4(C)[C@H]3CC[C@]12C)(c1ccc(Cl)cc1)c1ccc(Cl)cc1` [Compound 66, 17β-N-(1,1-Di-4-chlorophenyl)ethyl-carbamoyl-6-azaandrost-4-en-3-one], the 50% inhibitory concentration (IC50) in test [1] was over 100 nM; in test [2] it was under 10 nM.

In the case of `CC(C)(C)c1ccc(C(NC(=O)[C@H]2CC[C@H]3[C@@H]4CNC5=CC(=O)CC[C@]5(C)[C@H]4CC[C@]23C)c2ccccc2)cc1` (stereo partly drawn) [Compound 67, 17β-N-(1 -Phenyl-1-(4-t-butyl)phenyl)methyl-carbamoyl-6-azaandrost-4-en-3-one], the values for the IC50 in test [1] and in test [2] were over 100 nM and under 10 nM, respectively.

For the compound `C[C@]12CC[C@H]3[C@@H](CNC4=CC(=O)CC[C@@]43C)[C@@H]1CC[C@@H]2C(=O)C1CC2CCC1C2` (stereo partly drawn) [Compound 68, 17β-(1-Oxo-1-(2-norbornyl)methyl)-6-azaandrost-4-en-3-one], the IC50 is 10 to 100 nM in test [1] and under 10 nM in test [2].

With `C[C@]12CC[C@H]3[C@@H](CNC4=CC(=O)CC[C@@]43C)[C@@H]1CC[C@@H]2C(=O)Nc1c(Br)cc(Cl)cc1Br` [Compound 69, 17β-N-(2,6-Dibromo-4-chloro)phenyl-carbamoyl-6-azaandrost-4-en-3-one], the concentration for half-maximal inhibition (IC50) is 10 to 100 nM in test [1] and under 10 nM in test [2].

With `CCc1cc(Br)cc(CC)c1NC(=O)[C@H]1CC[C@H]2[C@@H]3CNC4=CC(=O)CC[C@]4(C)[C@H]3CC[C@]12C` [Compound 70, 17β-N-(2,6-Diethyl-4-bromo)phenyl-carbamoyl-6-azaandrost-4-en-3-one], the IC50 in test [1] is 10 to 100 nM; in test [2], under 10 nM.

Consider `CC(C)(C)c1ccc(NC(=O)[C@H]2CC[C@H]3[C@@H]4CNC5=CC(=O)CC[C@]5(C)[C@H]4CC[C@]23C)c(Br)c1` [Compound 71, 17β-N-(2-Bromo-4-t-butyl)phenyl-carbamoyl-6-azaandrost-4-en-3-one], for which the results for the half-inhibitory concentration (IC50) in test [1] and in test [2] were 10 to 100 nM and under 10 nM, respectively.

In the case of `CC(C)(C)c1ccc(NC(=O)[C@H]2CC[C@H]3[C@@H]4CNC5=CC(=O)CC[C@]5(C)[C@H]4CC[C@]23C)c(Cl)c1` [Compound 72, 17β-N-(2-Chloro-4-t-butyl)phenyl-carbamoyl-6-azaandrost-4-en-3-one], the figures for the half-inhibitory concentration (IC50) in test [1] and in test [2] were 10 to 100 nM and under 10 nM, respectively.

Turning to `CC(C)(C)c1ccc(C(NC(=O)[C@H]2CC[C@H]3[C@@H]4CNC5=CC(=O)CC[C@]5(C)[C@H]4CC[C@]23C)C(C)(C)C)cc1` (stereo partly drawn) [Compound 73, 17β-N-(1-t-Butyl-1-(4-t-butylphenyl))methyl-carbamoyl-6-azaandrost-4-en-3-one], the IC50 in test [1] and in test [2] was under 10 nM each time.

For the compound `CC(C)(C)c1ccc(Br)cc1NC(=O)[C@H]1CC[C@H]2[C@@H]3CNC4=CC(=O)CC[C@]4(C)[C@H]3CC[C@]12C` [Compound 74, 17β-N-(5-Bromo-2-t-butyl)phenyl-carbamoyl-6-azaandrost-4-en-3-one], the half-maximal inhibitory concentration (IC50) in test [1] and in test [2] was under 10 nM throughout.

For the compound `CC(C)(C)c1ccc(Cl)cc1NC(=O)[C@H]1CC[C@H]2[C@@H]3CNC4=CC(=O)CC[C@]4(C)[C@H]3CC[C@]12C` [Compound 75, 17β-N-(5-Chloro-2-t-butyl)phenyl-carbamoyl-6-azaandrost-4-en-3-one], the IC50 in test [1] and in test [2] was under 10 nM each time.

For `CCc1cccc(CC)c1NC(=O)[C@H]1CC[C@H]2[C@@H]3CNC4=CC(=O)CC[C@]4(C)[C@H]3CC[C@]12C` [Compound 76, 17β-N-(2,6-Diethyl)phenyl-carbamoyl-6-azaandrost-4-en-3-one], the IC50 in test [1] is 10 to 100 nM; in test [2], under 10 nM.

Regarding `CC(C)(C)c1cc(Br)ccc1NC(=O)[C@H]1CC[C@H]2[C@@H]3CNC4=CC(=O)CC[C@]4(C)[C@H]3CC[C@]12C` [Compound 77, 17β-N-(4-Bromo-2-t-butyl)phenyl-carbamoyl-6-azaandrost-4-en-3-one], the IC50 in test [1] and in test [2] was under 10 nM throughout.
